One data set is described as follows: in vitro. The settings on record: dog.
Data set [1] deals with H1N1 (influenza virus). The settings on record: H1N1 in host cell MDCK.
Data set [2] deals with H1N1 (influenza virus). Put plainly: microbe, parasite or virus in culture. The conditions noted are these: Influenza A virus, H1N1, MDCK, H1N1 in host cell MDCK, CPE.
Data set [3] has as its system H3N2 (influenza virus). Put plainly: microbe, parasite or virus in culture. The conditions noted are these: Influenza A virus, H3N2, MDCK, H3N2 in host cell MDCK, CPE.
Data set [4] has as its system H3N2 (influenza virus). The settings on record: H3N2 in host cell MDCK.
The next data set relates to H7N9 (influenza virus). Put plainly: microbe, parasite or virus in culture. The conditions noted are these: Influenza A virus, H7N9, MDCK.
Setting [5] is: TC50, host cell MDCK, H1N1 table.
[6] abbreviates: TC50, host cell MDCK, H3N2 table.

Data on 24 molecules can be found in US11590109B2 (priority 2016, dated 2023).

Turning to `CN(/N=C/c1ccccc1C(=O)O)c1nc(-c2cc(Cl)ccc2Cl)cs1` [Compound 19, (E)-4-(2,5-dichlorophenyl)-2-[1-methyl-2-(2-carboxybenzylidene)hydrazino]thiazole], the CC50 in “in vitro” (setting [5]) was 26 µM; in “in vitro” (setting [6]), 43 µM. For the same molecule, the “SI (TC50/IC50)” value is on record as 46 with H1N1 (influenza virus) [1] and 47.8 in the data set with H3N2 (influenza virus) [4]. Besides, the IC50 came to 0.56 µM in the data set with H1N1 (influenza virus) [2] and 0.9 µM in the data set on H3N2 (influenza virus) [3].
On to `CN(/N=C/c1cc(F)c(F)cc1C(=O)O)c1nc(-c2ccccc2Cl)cs1` [Compound 23], for which the CC50 turned out to be 54 µM in the data set “in vitro” (TC50) and 87 µM in the data set “in vitro” (setting [5]). The “SI (TC50/IC50)” value in the data set on H1N1 (influenza virus) [1] stood at 223. For the same molecule, the IC50 in the data set with H1N1 (influenza virus) [2] turned out to be 0.39 µM; in the data set on H7N9 (influenza virus) it was 0.35 µM.
Take `CN(/N=C/c1cc(O)c(F)cc1C(=O)O)c1nc(-c2ccccc2Cl)cs1` [Compound 24]: the IC50 with H1N1 (influenza virus) [2] was 325 µM; in the data set with H3N2 (influenza virus) [3], 152 µM.
Consider `Cc1sc(N/N=C/c2ccccc2C(=O)O)nc1-c1ccccc1Cl` [Compound 15, (E)-5-methyl-4-(2-chlorophenyl)-2-(2-carboxylbenzylidenehydrazino)thiazole], for which the results for the CC50 in the data set “in vitro” (setting [5]) and in “in vitro” (setting [6]) were 412 µM and 88 µM, respectively. In addition, the “SI (TC50/IC50)” value in the data set on H1N1 (influenza virus) [1] was determined as 3.3. Moreover, the figures for the IC50 in the data set on H1N1 (influenza virus) [2] and in the data set on H3N2 (influenza virus) [3] were 124 µM and 351 µM, respectively.
Turning to `COc1cccc(-c2csc(N/N=C/c3ccccc3C(=O)O)n2)c1` [Compound 52, (E)-2-((2-(4-(3-methoxyphenyl)thiazol-2-yl)hydrazono)methyl)benzoic Acid], the figures for the 50% inhibitory concentration (IC50) in the data set on H1N1 (influenza virus) [2] and in the data set on H3N2 (influenza virus) [3] were 1240 µM and 147 µM, respectively.
As for `O=C(O)c1ccccc1/C=N/Nc1nc(-c2ccc3ccccc3c2)cs1` [Compound 56, (E)-2-((2-(4-(naphthalen-2-yl)thiazol-2-yl)hydrazono)methyl)benzoic Acid], the figures for the IC50 in the data set with H1N1 (influenza virus) [2] and in the data set with H3N2 (influenza virus) [3] were 2310 µM and 549 µM, respectively.
On to `CC(C)N(/N=C/c1ccccc1C(=O)O)c1nc(-c2ccccc2Cl)cs1` [Compound 4, (E)-4-(2-chlorophenyl)-2-[1-isopropyl-2-(2-carboxybenzylidene)hydrazino]thiazole], for which the results for the CC50 in “in vitro” (setting [5]) and in the data set “in vitro” (setting [6]) were 23 µM and 35 µM, respectively. For the same molecule, the entries for the “SI (TC50/IC50)” value with H1N1 (influenza virus) [1] and in the data set with H3N2 (influenza virus) [4] were 8.8 and 0.31, respectively. In addition, the IC50 in the data set on H1N1 (influenza virus) [2] is 2.6 µM; in the data set with H3N2 (influenza virus) [3], 112 µM.
For the molecule `CN(/N=C/c1cc(N)c(F)cc1C(=O)O)c1nc(-c2ccccc2Cl)cs1` [Compound 25], the IC50 in the data set with H1N1 (influenza virus) [2] was 485 µM; with H3N2 (influenza virus) [3], 742 µM.
In “in vitro” (setting [5]), `O=C(O)c1c(F)cccc1/C=N/Nc1nc(-c2ccccc2Cl)cs1` [Compound 58, (E)-2-((2-(4-(2-chlorophenyl)thiazol-2-yl)hydrazono)methyl)-6-fluorobenzoic Acid] showed a CC50 of 254 µM. Further, the “SI (TC50/IC50)” value in the data set on H1N1 (influenza virus) [1] is 45. Besides, the IC50 in the data set with H1N1 (influenza virus) [2] is 5.6 µM; in the data set with H3N2 (influenza virus) [3], 365 µM.
`CCCC(C)N(/N=C/c1ccccc1C(=O)O)c1nc(-c2ccccc2Cl)c(C)s1` (stereo not drawn) [Compound 22, (E)-5-methyl-4-(2-chlorophenyl)-2-[1-(2-amyl)-2-(2-carboxybenzylidene)hydrazino]thiazole]: the CC50 is 148 µM in the data set “in vitro” (setting [5]) and 415 µM in the data set “in vitro” (setting [6]). Also, the “SI (TC50/IC50)” value in the data set on H1N1 (influenza virus) [1] is reported as 2.7; with H3N2 (influenza virus) [4], 1.6. In addition, the IC50 in the data set on H1N1 (influenza virus) [2] is 55 µM; in the data set on H3N2 (influenza virus) [3], 248 µM.
Take `CCCC(C)N(/N=C/c1ccccc1C(=O)O)c1nc(-c2ccccc2Cl)cs1` (stereo not drawn) [Compound 6, (E)-4-(2-chlorophenyl)-2-[1-(2-amyl)-2-(2-carboxybenzylidene)hydrazino]thiazole]: the CC50 in the data set “in vitro” (setting [5]) was 451 µM; in “in vitro” (setting [6]), 97 µM. Besides, the results for the “SI (TC50/IC50)” value in the data set with H1N1 (influenza virus) [1] and in the data set on H3N2 (influenza virus) [4] were 2 and 0.18, respectively. Further, the figures for the IC50 in the data set with H1N1 (influenza virus) [2] and with H3N2 (influenza virus) [3] were 124 µM and 554 µM, respectively.
For the molecule `CCCN(/N=C/c1ccccc1C(=O)O)c1nc(-c2ccccc2Cl)cs1` [Compound 3, (E)-4-(2-chlorophenyl)-2-[1-propyl-2-(2-carboxybenzylidene)hydrazino]thiazole], the CC50 in the data set “in vitro” (setting [5]) was 86 µM; in the data set “in vitro” (setting [6]), 52 µM. Also, the “SI (TC50/IC50)” value worked out at 7 with H1N1 (influenza virus) [1] and 2.08 in the data set on H3N2 (influenza virus) [4]. The IC50 with H1N1 (influenza virus) [2] stood at 12.3 µM; in the data set on H3N2 (influenza virus) [3], 25 µM.
Turning to `CCC(C)N(/N=C/c1ccccc1C(=O)O)c1nc(-c2ccccc2Cl)cs1` (stereo not drawn) [Compound 5, (E)-4-(2-chlorophenyl)-2-[1-(2-butyl)-2-(2-carboxybenzylidene)hydrazino]thiazole], the CC50 in “in vitro” (setting [5]) was 68 µM; in the data set “in vitro” (setting [6]), 89 µM. Also, the “SI (TC50/IC50)” value came out at 1.3 in the data set on H1N1 (influenza virus) [1] and 0.37 with H3N2 (influenza virus) [4]. Besides, the IC50 was found to be 52 µM in the data set with H1N1 (influenza virus) [2] and 243 µM with H3N2 (influenza virus) [3].
As for `O=C(O)c1ccccc1/C=N/Nc1nc(-c2ccccc2)cs1` [Compound 18, (E)-4-phenyl-2-(2-carboxybenzylidenehydrazino)thiazole], the CC50 is 124 µM in “in vitro” (setting [5]) and 148 µM in the data set “in vitro” (setting [6]). The “SI (TC50/IC50)” value in the data set with H1N1 (influenza virus) [1] was 12; with H3N2 (influenza virus) [4] it was 3.3. Further, the IC50 turned out to be 10.2 µM in the data set on H1N1 (influenza virus) [2] and 45 µM in the data set on H3N2 (influenza virus) [3].
With `CCc1sc(N/N=C/c2ccccc2C(=O)O)nc1-c1ccccc1Cl` [Compound 14, (E)-5-ethyl-4-(2-chlorophenyl)-2-(2-carboxylbenzylidenehydrazino)thiazole], the CC50 in the data set “in vitro” (setting [5]) came to 88 µM; in “in vitro” (setting [6]), 91 µM. Besides, the “SI (TC50/IC50)” value in the data set with H1N1 (influenza virus) [1] was found to be 2.1; in the data set with H3N2 (influenza virus) [4] it was 0.16. Moreover, the IC50 with H1N1 (influenza virus) [2] was found to be 41 µM; in the data set on H3N2 (influenza virus) [3], 550 µM.
With `O=C(O)c1ccccc1/C=N/N(CCO)c1nc(-c2ccccc2Cl)cs1` [Compound 7], the values for the CC50 in the data set “in vitro” (setting [5]) and in “in vitro” (setting [6]) were 355 µM and 124 µM, respectively. Moreover, the “SI (TC50/IC50)” value turned out to be 1.6 with H1N1 (influenza virus) [1] and 0.5 in the data set on H3N2 (influenza virus) [4]. For the same molecule, the IC50 in the data set on H1N1 (influenza virus) [2] stood at 221 µM; in the data set with H3N2 (influenza virus) [3] it was 248 µM.
Consider `Cc1sc(N/N=C/c2ccccc2C(=O)O)nc1-c1ccccc1` [Compound 17, (E)-5-methyl-4-phenyl-2-(2-carboxylbenzylidenehydrazino)thiazole], for which the values for the CC50 in “in vitro” (setting [5]) and in the data set “in vitro” (setting [6]) were 561 µM and 94 µM, respectively. Besides, the figures for the “SI (TC50/IC50)” value in the data set with H1N1 (influenza virus) [1] and with H3N2 (influenza virus) [4] were 7 and 62.6, respectively. Also, the 50% inhibitory concentration (IC50) is 8.1 µM in the data set with H1N1 (influenza virus) [2] and 1.5 µM in the data set on H3N2 (influenza virus) [3].
For the molecule `CN(/N=C/c1ccccc1C(=O)O)c1nc(-c2ccccc2)cs1` [Compound 20, (E)-4-phenyl-2-[1-methyl-2-(2-carboxybenzylidene)hydrazino]thiazole], the CC50 in the data set “in vitro” (setting [5]) and in the data set “in vitro” (setting [6]) was 57 µM in each case. The “SI (TC50/IC50)” value was determined as 22.8 in the data set with H1N1 (influenza virus) [1] and 11 with H3N2 (influenza virus) [4]. Besides, the IC50 was determined as 2.5 µM in the data set on H1N1 (influenza virus) [2] and 5.2 µM with H3N2 (influenza virus) [3].
For `CN(/N=C/c1ccccc1C(=O)O)c1nc(-c2cccc(Cl)c2)cs1` [Compound 21, (E)-4-(3-chlorophenyl)-2-[1-methyl-2-(2-carboxybenzylidene)hydrazino]thiazole], the CC50 in “in vitro” (setting [5]) worked out at 41 µM; in the data set “in vitro” (setting [6]) it was 49 µM. Moreover, the “SI (TC50/IC50)” value came out at 7.6 in the data set on H1N1 (influenza virus) [1] and 19.6 with H3N2 (influenza virus) [4]. The results for the 50% inhibitory concentration (IC50) with H1N1 (influenza virus) [2] and with H3N2 (influenza virus) [3] were 5.4 µM and 2.5 µM, respectively.
On to `Cc1ccc(/C=N/N(C)c2nc(-c3ccccc3)c(C)s2)c(C(=O)O)c1` [Compound 11, (E)-5-methyl-4-phenyl-2-[1-methyl-2-(4-methyl-2-carboxybenzylidene)hydrazino]thiazole], for which the CC50 in “in vitro” (TC50) came out at 54 µM; in “in vitro” (setting [5]) it was 241 µM; in the data set “in vitro” (setting [6]), 234 µM. The “SI (TC50/IC50)” value in the data set with H1N1 (influenza virus) [1] turned out to be 47; in the data set on H3N2 (influenza virus) [4], 2.72. Also, the results for the IC50 in the data set on H1N1 (influenza virus) [2], in the data set with H7N9 (influenza virus) and in the data set on H3N2 (influenza virus) [3] were 5.1 µM, 14 µM and 86 µM, respectively.
With `Cc1ccc(-c2csc(N/N=C/c3ccccc3C(=O)O)n2)cc1` [Compound 54, (E)-2-((2-(4-(p-tolyl)thiazol-2-yl)hydrazono)methyl)benzoic Acid], the IC50 with H1N1 (influenza virus) [2] was 112 µM; in the data set with H3N2 (influenza virus) [3], 326 µM.
Turning to `Cc1sc(N(C)/N=C/c2ccccc2C(=O)O)nc1-c1ccccc1Cl` [Compound 13], the CC50 in “in vitro” (setting [5]) was 87 µM; in the data set “in vitro” (setting [6]) it was 373 µM. The “SI (TC50/IC50)” value in the data set on H1N1 (influenza virus) [1] was 1.3; in the data set with H3N2 (influenza virus) [4] it was 3.27. Further, the IC50 in the data set on H1N1 (influenza virus) [2] was 65 µM; in the data set on H3N2 (influenza virus) [3], 114 µM.
For `NC(=O)c1cccc(-c2csc(N/N=C/c3ccccc3C(=O)O)n2)c1` [Compound 53, (E)-2-((2-(4-(3-aminoformylphenyl)thiazol-2-yl)hydrazono)methyl)benzoic Acid], the IC50 in the data set with H1N1 (influenza virus) [2] was 781 µM; in the data set on H3N2 (influenza virus) [3], 216 µM.
For the molecule `O=C(O)c1ccccc1/C=N/Nc1nc(-c2ccc(-c3ccccc3)cc2)cs1` [Compound 57, (E)-2-((2-(4-(biphenyl-4-yl)thiazol-2-yl)hydrazono)methyl)benzoic Acid], the IC50 with H1N1 (influenza virus) [2] came out at 1290 µM; in the data set on H3N2 (influenza virus) [3], 4430 µM.

In general, IC50 refers to the point on the concentration scale where inhibition reaches its midpoint. Lower therefore signals greater potency.
